Measured values reported in US7384912B2, “Treatment of bone disorders with skeletal anabolic drugs” (Osteotrophin, LLC, priority 2002, dated 2008).
Read-outs that look alike come from different tables or passages of the source. Marks after values point to notes of the source that are not given here. No end group written: not given here.

Assays:
[1] = tested on: ovariectomized (OVX) rats; assay: Bone mass measurements in ovariectomized rats; type: in vivo, rat; parameters: Left Femur Length: unit not given here; conditions: 40 μg/kg/day s.c. once daily
[2] = tested on: adenylate cyclase in SaOS-2 intact cells; assay: Adenylate cyclase assay in SaOS-2 intact cells; type: cell-based, human; conditions: 15° C., 60 min
Experimental: Adenylate cyclase-stimulating activity was examined in confluent SAOS-2 cells as previously described for ROS 17/2.8 cells (Merendino et al., Science 231:388-390, (1986)), with the following modification. The intact cell assay was conducted at 15° C., the same conditions employed for binding to intact SaOS-2 cells (vide supra). […] Dose response curves for each peptide were thus generated using 60 min incubations at 15° C. under binding assay conditions.
(§1) Statistical differences were assessed by paired and unpaired two-tailed Student's t test.

[3] = tested on: ovariectomized (OVX) rats; assay: Bone histomorphometry of the right proximal tibia in ovariectomized rats; type: in vivo, rat; parameters: Trabecular Number Tb.N.: unit not given here; conditions: for Apposition Rate MAR / Bone Formation Rate BFR/BS / Mineralizing Surface MS/BS / Osteoclast Surface Oc.PM / Resorbing Surface E.PM / Trabecular Area Tb.A. / Trabecular Number Tb.N. / Trabecular Space Tb.Sp. / Trabecular Thickness Tb.Th.: 40 μg/kg/day s.c. once daily
[4] = tested on: ovariectomized (OVX) rats; assay: Biomechanical measures of strength in ovariectomized rats; type: in vivo, rat; conditions: 40 μg/kg/day s.c. once daily
[5] = tested on: patients with osteoporosis; conditions: cited from earlier work
[6] = tested on: adenylate cyclase in SaOS-2 membranes; assay: Adenylate cyclase assay in SaOS-2 cell membranes; type: biochemical, human; conditions: 30° C., 30 min
Experimental: Therefore, dose response curves for each peptide were generated at 30° C. for 10 min in human kidney and 30° C. for 30 min in SaOS-2 membranes. As with the intact cell adenylate cyclase assays, kidney and bone cell membrane adenlyate cyclase assays were performed under binding assay conditions. Results are expresses as percentage of maximal cAMP stimulation in order to compare peptide dose responses from different experiments.
as §1

[7] = target: T1, PTH/PTHrP receptors in human renal cortical membranes (RCM) (Homo sapiens, UniProt Q03431); assay: Competition binding of 125I-(Tyr36)hPTHrP-(1-36)NH2 to human renal cortical membranes
T1 sequence (Q03431 27-593): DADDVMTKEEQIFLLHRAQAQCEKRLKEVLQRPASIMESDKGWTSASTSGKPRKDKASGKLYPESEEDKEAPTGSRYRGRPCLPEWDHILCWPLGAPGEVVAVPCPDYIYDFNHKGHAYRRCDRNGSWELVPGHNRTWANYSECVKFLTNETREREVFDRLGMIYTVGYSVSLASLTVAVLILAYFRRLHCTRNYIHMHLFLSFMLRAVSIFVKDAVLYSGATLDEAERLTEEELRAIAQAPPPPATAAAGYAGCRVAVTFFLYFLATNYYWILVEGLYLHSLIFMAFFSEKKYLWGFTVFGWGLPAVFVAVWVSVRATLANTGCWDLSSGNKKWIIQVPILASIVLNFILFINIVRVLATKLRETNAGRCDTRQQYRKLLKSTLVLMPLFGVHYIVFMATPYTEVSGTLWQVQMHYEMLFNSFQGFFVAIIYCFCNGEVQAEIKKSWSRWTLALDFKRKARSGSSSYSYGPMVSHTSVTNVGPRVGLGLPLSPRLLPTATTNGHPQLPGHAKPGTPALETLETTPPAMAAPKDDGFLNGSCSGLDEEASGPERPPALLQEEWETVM
Experimental: All steps were performed in the presence of the following protease inhibitors: aprotinin [10 Kallikrein inhibitor units (KIU/ml], pepstatin (5 μg/ml), leupeptin (45 μg/ml), and phenylmethanesulfanylfluoride (10 μg/ml). Normal human kidney cortex was from four separate nephrectomy specimens removed for localized transitional cell carcinoma, renal cell carcinoma, or benign cysts. Renal function in all individuals was normal as assessed by serum creatinine and pyelography. Membranes were pooled, aliquoted, and stored at −70° C. for later use.
Human RCM were added to a final concentration of 90 μg/ml. […] The incubation time of 30 min was used for subsequent equilibrium binding competition studies.
as §1

[8] = target: T2, PTH/PTHrP receptors in SaOS-2 membranes (Homo sapiens, UniProt Q03431); assay: Competition binding of 125I-(Tyr36)hPTHrP-(1-36)NH2 to SaOS-2 membranes; conditions: 30° C., 60 min
T2 sequence (Q03431 27-593): T1 sequence (Q03431 27-593)
Experimental: Briefly, postconfluent cells in 150 cm^2 flasks were scraped into membrane buffer [10 mM Tris HCl (pH 7.5), 0.2 mM MgCl2, 0.5 mM EGTA, 1 mM dithiothreitol, leupeptin 45 μg/ml, pepstatin 5 μg/ml, aprotinin 10 KIU/ml, and phenylmethane sulfanyl-fluoride 10 μg/ml] at 0° C. Cell disruption was achieved by sonification and the suspension was centrifuged at 13,000×g for 15 min at 4° C. […] The suspension was layered onto a cushion of the membrane buffer containing 45% sucrose and centrifuged at 70,000×g for 30 min at 4° C. […] Protein concentrations were determined by the method of Lowry using BSA as standard.
The binding assay for SaOS-2 membranes was conducted as for human RCM. Membranes were added to a final concentration of 112.5 μg/ml and specific binding reached equilibrium by 60 min at 30° C.

[9] = target: T3, PTH/PTHrP receptors on SaOS-2 intact cells (Homo sapiens, UniProt Q03431); assay: Competition binding of 125I-(Tyr36)hPTHrP-(1-36)NH2 to SaOS-2 intact cells; conditions: SaOS-2 cells
T3 sequence (Q03431 27-593): T1 sequence (Q03431 27-593)
Experimental: The medium was changed every other day, and studies were performed at 5-7 days post confluence. Cell numbers were determined using a Coulter counter.
Binding studies were conducted at 15° C. in the presence of chymostatin (100 μg/ml) and bacitracin (200 μg/ml). […] The incubation time of 150 min was therefore used for competitive binding studies.

[10] = two to three years of administration

## hPTH-(1-34)
[1]; 30 days
  Left Femur BMC: 0.340 ± 0.011^a,c
  Left Femur BMD: 0.200 ± 0.004^a
  Left Femur Length: 34.9 ± 0.3
  Left Femur X Area: 1.68 ± 0.04^c
  Radius Ash Weight: 60 ± 1^c mg
  Whole Body BMC: 64 ± 3^c
[1]; 90 days
  Left Femur BMC: 0.401 ± 0.010^a,c
  Left Femur BMD: 0.232 ± 0.005^a,c
  Left Femur Length: 35.7 ± 0.2^c
  Left Femur X Area: 1.73 ± 0.03^c
  Radius Ash Weight: 66 ± 1^a,c mg
  Whole Body BMC: 69 ± 3^c
[1]; 180 days
  Left Femur BMC: 0.451 ± 0.012^a,c
  Left Femur BMD: 0.234 ± 0.004^a,c
  Left Femur Length: 35.6 ± 0.3^c
  Left Femur X Area: 1.84 ± 0.04^a,c
  Radius Ash Weight: 72 ± 2^a,c mg
  Whole Body BMC: 71 ± 3^c
[2]
  EC50: 1.6 nM
[3]; 30 days
  Apposition Rate MAR: 2.4 ± 0.1^c μm/d
  Bone Formation Rate BFR/BS: 1.18 ± 7^a,c μm/d
  Mineralizing Surface MS/BS: 49 ± 2^a,c %
  Osteoclast Surface Oc.PM: 2.3 ± 0.6%
  Resorbing Surface E.PM: 8.6 ± 1.2%
  Trabecular Area Tb.A.: 19 ± 2^a %
  Trabecular Number Tb.N.: 2.3 ± 0.1
  Trabecular Space Tb.Sp.: 367 ± 28^a,c Φm
  Trabecular Thickness Tb.Th.: 81 ± 5^a,c Φm
[3]; 90 days
  Apposition Rate MAR: 3.0 ± 0.1^a,c μm/d
  Bone Formation Rate BFR/BS: 1.23 ± 4^a,c μm/d
  Mineralizing Surface MS/BS: 41 ± 1^a,c %
  Osteoclast Surface Oc.PM: 2.6 ± 0.5%
  Resorbing Surface E.PM: 10.6 ± 1.3^c %
  Trabecular Area Tb.A.: 38 ± 3^a,c %
  Trabecular Number Tb.N.: 2.4 ± 0.2
  Trabecular Space Tb.Sp.: 274 ± 34^a Φm
  Trabecular Thickness Tb.Th.: 158 ± 6^a,c Φm
[3]; 180 days
  Apposition Rate MAR: 3.8 ± 0.7^c μm/d
  Bone Formation Rate BFR/BS: 1.53 ± 28^a,c μm/d
  Mineralizing Surface MS/BS: 40 ± 2^a,c %
  Osteoclast Surface Oc.PM: 2.0 ± 0.4%
  Resorbing Surface E.PM: 6.4 ± 1.5%
  Trabecular Area Tb.A.: 38 ± 3^a,c %
  Trabecular Number Tb.N.: 2.3 ± 0.1
  Trabecular Space Tb.Sp.: 279 ± 29^a Φm
  Trabecular Thickness Tb.Th.: 163 ± 8^a,c Φm
[3]; 90 days of treatment
  bone in the right proximal tibia, photomicrographs: not only restores lost bone but significantly increases trabecular bone volume over Sham
[4]; 30 days
  Femur Neck Ultimate Load, (Fu): 139 ± 3^ac N
  Mid-Femur Cortical Thickness (t): 0.64 ± 0.02^ac mm
  Mid-Femur Moment of Inertia (I): 4.5 ± 0.2 mm^4
  Mid-Femur Stiffness (S): 571 ± 13 N/mm
  Mid-Femur Toughness (u): 6.0 ± 0.3^c MJ/m^3
  Mid-Femur Ultimate Load (Fu): 185 ± 6^ac N
  Mid-Femur Ultimate Stress (Su): 229 ± 7 MPa
  Mid-Femur Work to Failure (U): 63 ± 4 mJ
  Mid-Femur Young's Modulus (E): 9.1 ± 0.3 Gpa
[4]; 90 days
  Femur Neck Ultimate Load, (Fu): 146 ± 4^ac N
  Mid-Femur Cortical Thickness (t): 0.71 ± 0.02^ac mm
  Mid-Femur Moment of Inertia (I): 4.5 ± 0.1 mm^4
  Mid-Femur Stiffness (S): 641 ± 14^ac N/mm
  Mid-Femur Toughness (u): 5.7 ± 0.3^a MJ/m^3
  Mid-Femur Ultimate Load (Fu): 209 ± 4^ac N
  Mid-Femur Ultimate Stress (Su): 251 ± 7^ac MPa
  Mid-Femur Work to Failure (U): 62 ± 3^a mJ
[4]; 180 days
  Femur Neck Ultimate Load, (Fu): 147 ± 6^ac N
  Mid-Femur Cortical Thickness (t): 0.89 ± 0.01^ac mm
  Mid-Femur Moment of Inertia (I): 5.4 ± 0.3^ac mm^4
  Mid-Femur Stiffness (S): 814 ± 31^ac N/mm
  Mid-Femur Toughness (u): 5.0 ± 0.3^ac MJ/m^3
  Mid-Femur Ultimate Load (Fu): 241 ± 9^ac N
  Mid-Femur Ultimate Stress (Su): 251 ± 8^ac MPa
  Mid-Femur Work to Failure (U): 61 ± 4^ac mJ
[5]; at three months (Finkelstein et al.)
  increase in urinary hydroxyproline and pyridinolines: approximately 200%
[5]; at three months (Lindsay et al.)
  increase in resorption assessed using urinary NIX: 25%
[5]; multiple studies
  increase in lumbar spine bone mineral density: 10-15%
[5]; one study (Roe et al.)
  increase in lumbar spine trabecular bone density by QCT: ≤ 80%
  increase in spine bone mineral density by DXA: ≤ 30%

## [Ca+2] [calcium]
[5]; [10]
  increase in lumbar spine bone mineral density: ~2%

## CCCC[C@H](NC(=O)[C@H](CO)NC(=O)[C@H](CC(N)=O)NC(=O)[C@H](CC(C)C)NC(=O)[C@H](Cc1c[nH]cn1)NC(=O)[C@H](CCCCN)NC(=O)CNC(=O)[C@H](CC(C)C)NC(=O)[C@H](CC(N)=O)NC(=O)[C@H](Cc1c[nH]cn1)NC(=O)[C@H](CCCC)NC(=O)[C@H](CC(C)C)NC(=O)[C@H](CCC(N)=O)NC(=O)[C@@H](NC(=O)[C@H](CCC(=O)O)NC(=O)[C@H](CO)NC(=O)[C@@H](NC(=O)[C@@H](N)CO)C(C)C)[C@@H](C)CC)C(=O)N[C@@H](CCC(=O)O)C(=O)N[C@@H](CCCNC(=N)N)C(=O)N[C@H](C(=O)N[C@@H](CCC(=O)O)C(=O)N[C@@H](Cc1c[nH]c2ccccc12)C(=O)N[C@@H](CC(C)C)C(=O)N[C@@H](CCCNC(=N)N)C(=O)N[C@@H](CCCCN)C(=O)N[C@@H](CCCCN)C(=O)N[C@@H](CC(C)C)C(=O)N[C@@H](CCC(N)=O)C(=O)N[C@@H](CC(=O)O)C(=O)N[C@H](C(=O)N[C@@H](Cc1c[nH]cn1)C(=O)N[C@@H](CC(N)=O)C(=O)N[C@@H](Cc1ccc(O)cc1)C(=O)O)C(C)C)C(C)C [(Nle^8,18Tyr^34)hPTH-(1-34), (Nle^8,18, Tyr^34)hPTH-(1-34)]
[6]
  EC50: 1.9 ± 0.4 nM
[2]
  EC50: 2.3 ± 0.4 nM

## AVSEHQLLHDKGKSIQDLRRRIFLQNLIEGVNTAEY-NH2 [(Tyr^36)cPTHrP-(1-36)NH2, (Tyr^36) chicken (c)PTHrP-(1-36)amide]
[7]; human RCM, 30° C., 30 min, read-out: Binding (IC50) Kidney membranes
  IC50: 0.47 ± 0.22 nM
[8]
  IC50: 1.1 ± 0.3 nM

## CC(C)C[C@H](NC(=O)[C@H](CCCCN)NC(=O)CNC(=O)[C@H](CC(C)C)NC(=O)[C@@H](NC(=O)[C@@H]1CSSC[C@H](N)C(=O)N[C@@H](CO)C(=O)N[C@@H](CC(N)=O)C(=O)N[C@@H](CC(C)C)C(=O)N[C@@H](CO)C(=O)N[C@@H]([C@@H](C)O)C(=O)N1)C(C)C)C(=O)N[C@@H](CO)C(=O)N[C@@H](CCC(N)=O)C(=O)N[C@@H](CCC(=O)O)C(=O)N[C@@H](CC(C)C)C(=O)N[C@@H](Cc1c[nH]cn1)C(=O)N[C@@H](CCCCN)C(=O)N[C@@H](CC(C)C)C(=O)N[C@@H](CCC(N)=O)C(=O)N[C@H](C(=O)N[C@@H](Cc1ccc(O)cc1)C(=O)N1CCC[C@H]1C(=O)N[C@@H](CCCNC(=N)N)C(=O)N[C@H](C(=O)N[C@@H](CC(N)=O)C(=O)N[C@H](C(=O)NCC(=O)N[C@@H](CO)C(=O)NCC(=O)N[C@H](C(=O)N1CCC[C@H]1C(N)=O)[C@@H](C)O)[C@@H](C)O)[C@@H](C)O)[C@@H](C)O [calcitonin]
[5]; [10]
  increase in lumbar spine bone mineral density: ~2%

## hPTHrP-(1-74)
[7]; RCM
  affinity less than that of hPTHrP-(1-36): 25 fold
[2]
  EC50: 9.2 ± 1 nM
[9]
  affinity less than that of hPTHrP-(1-36): 9 fold
